Experimental data published in patent US20140031278A1, “Novel Glucagon Analogues” (NOVO NORDISK A/S, priority 2011, published 2014).
*1 amine or outer side, *2 acyl side, *3 side chain or, on linkers, in order; H or OH if unused. Where a SMILES comes first, the peptide text is derived from it. Side-chain parts run from the residue outwards. [ ]: non-standard residue; d: D form. The star is where a group is joined. γGlu = O=C(O)[C@H](CCC(=O)[*:2])N[*:1]; Suc = O=C(CCC(=O)[*:2])[*:1]; Pentanoyl = CCCCC(=O)*; Aib = CC(C)(N)C(=O)O; Butyryl = CCCC(=O)*

How the values were obtained:
glucagon receptor = biological target: T1, glucagon receptor (Homo sapiens, UniProt P47871); test: Assay (I) Glucagon activity (cAMP biosensor, FLIPR); assay type: cell-based; details: HEK-293 cells with cloned glucagon receptor and cAMP biosensor; end point after 6 minutes
T1 construct: expressed in transfected cells
Method in brief: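 HEK-293 cells expressing glucagon receptor with membrane cAMP biosensor (ACTOne), calcium-dye loaded with probenecid and a PDE inhibitor.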

[1] = ThT fibrillation assay for physical stability (lag time, recovery); assay type: physicochemical; details: absence of increased ThT fluorescence noted as lag time of 45 hours
From the text: This has traditionally been measured by visual inspection of the sample. However, that kind of measurement is very subjective and depending on the observer. Therefore, the application of a small molecule indicator probe is much more advantageous. […] Enzymol.
Here, F is the ThT fluorescence at the time t.
The lag-time corresponds to the interval in which the critical mass of nucleus is built up and the apparent rate constant is the rate with which the fibril itself is formed.
Samples were prepared freshly before each assay. […] The pH of the sample was adjusted to the desired value using appropriate amounts of concentrated NaOH and HCl.
The plate was sealed with Scotch Pad (Qiagen).
Each run was initiated by incubating the plate at the assay temperature for 10 min. The plate was measured every 20 minutes for a desired period of time. Between each measurement, the plate was shaken and heated as described.
The supernatant was filtered through a 0.22 μm filter and an aliquot was transferred to a HPLC vial.
The data set may be fitted to Eq. (1).

T1 sequence (P47871 26-477): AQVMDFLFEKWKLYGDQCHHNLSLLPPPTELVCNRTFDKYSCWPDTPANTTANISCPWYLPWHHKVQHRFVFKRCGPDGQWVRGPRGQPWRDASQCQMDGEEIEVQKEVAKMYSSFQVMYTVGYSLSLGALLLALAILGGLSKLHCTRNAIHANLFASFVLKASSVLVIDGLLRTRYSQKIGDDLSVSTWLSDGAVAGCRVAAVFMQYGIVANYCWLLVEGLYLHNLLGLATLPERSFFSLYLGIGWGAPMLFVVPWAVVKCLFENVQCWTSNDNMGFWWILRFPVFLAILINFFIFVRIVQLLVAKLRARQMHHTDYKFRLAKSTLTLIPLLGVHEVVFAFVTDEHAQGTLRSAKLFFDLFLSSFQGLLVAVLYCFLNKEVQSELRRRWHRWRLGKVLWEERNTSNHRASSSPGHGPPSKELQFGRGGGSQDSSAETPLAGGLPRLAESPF

EC50 (glucagon receptor) [nM] | SMILES | ThT assay [Lag time] [1] [h]
0.021 | CCCC(=O)N[C@@H](CCC(=O)N[C@@H](CCC(=O)N[C@@H](CCC(=O)N[C@@H](CCC(=O)NCCCC[C@H](NC(=O)[C@@H](NC(=O)[C@H](Cc1ccccc1)NC(=O)[C@H](CC(=O)O)NC(=O)[C@H](C)NC(=O)[C@H](C)NC(=O)[C@H](CCCNC(=N)N)NC(=O)[C@H](CCCNC(=N)N)NC(=O)[C@H](CC(C)C)NC(=O)[C@H](CC(=O)O)NC(=O)[C@H](CC(C)C)NC(=O)[C@H](Cc1ccc(O)cc1)NC(=O)[C@H](CCCNC(=N)N)NC(=O)[C@H](CO)NC(=O)[C@H](Cc1ccc(O)cc1)NC(=O)[C@H](CC(=O)O)NC(=O)[C@H](CO)NC(=O)[C@@H](NC(=O)[C@H](Cc1ccccc1)NC(=O)[C@@H](NC(=O)CNC(=O)[C@H](CCC(N)=O)NC(=O)[C@H](CO)NC(=O)[C@@H](N)Cc1c[nH]cn1)[C@@H](C)O)[C@@H](C)O)C(C)C)C(=O)N[C@@H](Cc1c[nH]c2ccccc12)C(=O)N[C@@H](CC(C)C)C(=O)N[C@@H](CC(C)C)C(=O)N[C@@H](CO)C(=O)N[C@H](C(=O)O)[C@@H](C)O)C(=O)O)C(=O)O)C(=O)O)C(=O)O [Example 65, N^ε24-[(4S)-4-[[(4S)-4-[[(4S)-4-[[(4S)-4-(butanoylamino)-4-carboxybutanoyl]amino]-4-carboxybutanoyl]amino]-4-carboxybutanoyl]amino]-4-carboxybutanoyl]-[Arg^12,Leu^16,Ala^20,Lys^24,Leu^27,Ser^28]-Glucagon] (H-HSQGTFTSDYSRYLDLRRAADFVK([γGlu-γGlu-γGlu-γGlu-Butyryl])WLLST-OH) | 
0.02 | CC(C)C[C@H](NC(=O)[C@H](CC(=O)O)NC(=O)[C@H](CC(C)C)NC(=O)[C@H](Cc1ccc(O)cc1)NC(=O)[C@H](CCCNC(=N)N)NC(=O)[C@H](CO)NC(=O)[C@H](Cc1ccc(O)cc1)NC(=O)[C@H](CC(=O)O)NC(=O)[C@H](CO)NC(=O)[C@@H](NC(=O)[C@H](Cc1ccccc1)NC(=O)[C@@H](NC(=O)CNC(=O)[C@H](CCC(N)=O)NC(=O)[C@H](CO)NC(=O)[C@@H](N)Cc1c[nH]cn1)[C@@H](C)O)[C@@H](C)O)C(=O)N[C@@H](CCCNC(=N)N)C(=O)N[C@@H](CCCNC(=N)N)C(=O)N[C@@H](C)C(=O)N[C@@H](C)C(=O)N[C@@H](CC(=O)O)C(=O)N[C@@H](Cc1ccccc1)C(=O)N[C@H](C(=O)N[C@@H](CCCCNC(=O)CC[C@H](NC(=O)CC[C@H](NC(=O)CC[C@H](NC(=O)CC[C@H](NC(=O)CCC(=O)O)C(=O)O)C(=O)O)C(=O)O)C(=O)O)C(=O)N[C@@H](Cc1c[nH]c2ccccc12)C(=O)N[C@@H](CC(C)C)C(=O)N[C@@H](CC(C)C)C(=O)N[C@@H](CO)C(=O)N[C@H](C(=O)O)[C@@H](C)O)C(C)C [Example 66, N^ε24-[(4S)-4-carboxy-4-[[(4S)-4-carboxy-4-[[(4S)-4-carboxy-4-[[(4S)-4-carboxy-4-(3-carboxypropanoylamino)butanoyl]amino]butanoyl]amino]butanoyl]amino]butanoyl]-[Arg^12,Leu^16,Ala^20,Lys^24,Leu^27,Ser^28]-Glucagon] (H-HSQGTFTSDYSRYLDLRRAADFVK([γGlu-γGlu-γGlu-γGlu-Suc])WLLST-OH) | 
0.022 | CCCCC(=O)N[C@@H](CCC(=O)N[C@@H](CCC(=O)N[C@@H](CCC(=O)N[C@@H](CCC(=O)NCCCC[C@H](NC(=O)[C@@H](NC(=O)[C@H](Cc1ccccc1)NC(=O)[C@H](CC(=O)O)NC(=O)[C@H](C)NC(=O)[C@H](C)NC(=O)[C@H](CCCNC(=N)N)NC(=O)[C@H](CCCNC(=N)N)NC(=O)[C@H](CC(C)C)NC(=O)[C@H](CC(=O)O)NC(=O)[C@H](CC(C)C)NC(=O)[C@H](Cc1ccc(O)cc1)NC(=O)[C@H](CCCNC(=N)N)NC(=O)[C@H](CO)NC(=O)[C@H](Cc1ccc(O)cc1)NC(=O)[C@H](CC(=O)O)NC(=O)[C@H](CO)NC(=O)[C@@H](NC(=O)[C@H](Cc1ccccc1)NC(=O)[C@@H](NC(=O)CNC(=O)[C@H](CCC(N)=O)NC(=O)[C@H](CO)NC(=O)[C@@H](N)Cc1c[nH]cn1)[C@@H](C)O)[C@@H](C)O)C(C)C)C(=O)N[C@@H](Cc1c[nH]c2ccccc12)C(=O)N[C@@H](CC(C)C)C(=O)N[C@@H](CC(C)C)C(=O)N[C@@H](CO)C(=O)N[C@H](C(=O)O)[C@@H](C)O)C(=O)O)C(=O)O)C(=O)O)C(=O)O [Example 67] (H-HSQGTFTSDYSRYLDLRRAADFVK([γGlu-γGlu-γGlu-γGlu-Pentanoyl])WLLST-OH) | 

SMILES | EC50 (glucagon receptor) [nM] | ThT assay [Lag time] [1] [h]
CC(=O)N[C@@H](CCC(=O)N[C@@H](CCC(=O)N[C@@H](CCC(=O)N[C@@H](CCC(=O)NCCCC[C@H](NC(=O)[C@@H](NC(=O)[C@H](Cc1ccccc1)NC(=O)[C@H](CCC(=O)O)NC(=O)[C@H](C)NC(=O)[C@H](C)NC(=O)[C@H](CCCNC(=N)N)NC(=O)[C@H](CCCNC(=N)N)NC(=O)[C@@H](NC(=O)[C@H](CC(=O)O)NC(=O)[C@H](CC(C)C)NC(=O)[C@H](Cc1ccc(O)cc1)NC(=O)[C@H](CCCCN)NC(=O)[C@H](CO)NC(=O)[C@H](Cc1ccc(O)cc1)NC(=O)[C@H](CC(=O)O)NC(=O)[C@H](CO)NC(=O)[C@@H](NC(=O)[C@H](Cc1ccccc1)NC(=O)[C@@H](NC(=O)CNC(=O)[C@H](Cc1c[nH]cn1)NC(=O)C(C)(C)NC(=O)[C@@H](N)Cc1c[nH]cn1)[C@@H](C)O)[C@@H](C)O)C(C)C)C(C)C)C(=O)N[C@@H](Cc1c[nH]c2ccccc12)C(=O)N[C@@H](CC(C)C)C(=O)N[C@@H](CC(C)C)C(=O)N[C@@H](CO)C(=O)N[C@H](C(=O)O)[C@@H](C)O)C(=O)O)C(=O)O)C(=O)O)C(=O)O [Example 48, N^ε24-[(4S)-4-[[(4S)-4-[[(4S)-4-[[(4S)-4-acetamido-4-carboxybutanoyl]amino]-4-carboxybutanoyl]amino]-4-carboxybutanoyl]amino]-4-carboxybutanoyl]-[Aib^2,His^3,Val^16,Ala^20,Glu^21,Lys^24,Leu^27,Ser^28]-Glucagon] (H-H[Aib]HGTFTSDYSKYLDVRRAAEFVK([γGlu-γGlu-γGlu-γGlu-Ac])WLLST-OH) | 0.005 | 14
